Experimental data reported in ChEMBL document CHEMBL1121882, “Approaches to vasodilating/beta-adrenergic blocking agents: examples of the dihydrolutidine type” (1981).

How the values were obtained:
Rattus norvegicus [1] = test: Compound was tested for effect on arterial pressure in spontaneously hypertensive rats (SHR) at 5 mg/kg, po; assay type: functional, Artery
Rattus norvegicus [2] = test: Compound was tested for effect on arterial pressure in spontaneously hypertensive rats (SHR) at 20 mg/kg, po; assay type: functional, Artery
Rattus norvegicus [3] = test: Compound was tested for effect on arterial pressure in spontaneously hypertensive rats (SHR) at 20 mg/kg administered intraperitoneally; assay type: functional, Artery; conditions: route intraperitoneal
Rattus norvegicus [4] = test: Compound was tested for effect on arterial pressure in spontaneously hypertensive rats (SHR) at 20 mg/kg administered intraperitoneally; Death; assay type: functional, organism-based; parameters: dose 20 mg/kg; conditions: Artery
Rattus norvegicus [5] = test: Compound was tested for effect on arterial pressure in spontaneously hypertensive rats (SHR) at 1.25 mg/kg, po; assay type: functional, Artery

SMILES | Max fall in MAP (Rattus norvegicus [1]) [mmHg] | Max fall in MAP (Rattus norvegicus [4]) | Max fall in MAP (Rattus norvegicus [5]) [mmHg] | other results
CC(C)NCC(O)COc1cccc2ccccc12 (stereo not given) [PROPRANOLOL] | 7 |  |  | 
CCOC(=O)C1=C(C)N=C(C)/C(=C(/O)OCC)C1c1ccccc1OCC(O)CNC(C)(C)C (stereo not given) |  |  |  | Max fall in MAP (Rattus norvegicus [2]): 16 mmHg; Max fall in MAP (Rattus norvegicus [3]): 15 mmHg
CCOC(=O)C1=C(C)N=C(C)/C(=C(/O)OCC)C1c1ccccc1C(F)(F)F (stereo not given) | 41 |  |  | 
CCOC(=O)C1=C(C)N=C(C)/C(=C(/O)OCC)C1c1ccc(OCC(O)CNC(C)(C)C)cc1 (stereo not given) | 17 | Death |  | 
CCOC(=O)C1=C(C)N=C(C)/C(=C(/O)OCC)C1c1ccc(OCC(O)CNC(C)(C)C)cc1C (stereo not given) | 42 | Death | 12 | 
CC(C)(C)NC[C@H](O)COc1nsnc1N1CCOCC1 [TIMOLOL] |  |  | -1 | 
